Measurements reported in patent publication US9499787B2, “Method for differentiating stem cells into neurons” (Dongguk University Industry-Academic Cooperation Foundation, priority 2012, dated 2016).

Tests used:
Mesenchymal stem cells [1] = test: Immunofluorescence staining of neuron-associated proteins; type: cell-based, human; conditions: all cases treated with lipoic acid, 5 days after differentiation, compared to the control
Protocol: (§1) Mesenchymal stem cells were seeded in low glucose-Dulbecco's Modified Eagle's Medium (LG-DMEM) containing 10% fetal bovine serum (FBS) at a density of 5×10^3 cell/cm2. 24 hours after seeding, the medium was replaced with fresh DMEM/F-12 (1:1 mixed medium) supplemented with 1 uM hydrocortisone, […], 1% bovine serum albumin, and 0, 1, 2, 3, 4, 5 or 8 mM lipoic acid to induce differentiation into neural cells. Moreover, 1 uM forskolin was further added to promote differentiation into neural cells.
The neural cells cultured in Example 3 were fixed on glass coverslips with 4% paraformaldehyde for 10 minutes, blocked with PBS containing 1.5% bovine serum albumin (BSA), and then permeabilized with PBS containing 0.5% Triton™ X-100. Then, the cells were reacted with primary antibodies such as anti-NF-L, anti-MAP2, anti-GFAP, anti-NeuroD1 (Cell Signaling, USA), and anti-tau (Biosource, USA) at 4° C. for 16 hours. Then, the cells were washed with PBS for 10 minutes and reacted with species-specific secondary antibodies such as anti-rabbit IgG-Alexa Fluor® 488 or anti-mouse IgG-Alexa Fluor® 555 conjugate at room temperature for 1 hour. Then, the stained cells were mounted with Vectashield® mounting medium containing DAPI and contrast stained. The cells were examined using a Confocal Laser Scanning Microscope (LSM 510-meta, Germany), and the results are shown in FIG. 9.

human cells = conditions: serum-free culture of human cells; cited from earlier work
Mesenchymal stem cells [2] = test: Western blot analysis of neuron-associated proteins (NSE, Nestin, NF-L); type: cell-based, human; conditions: 5 days after differentiation, compared to the control
Protocol: as §1
The neural cells cultured in Example 3 were washed with phosphate-buffered saline (PBS) and lysed with radioimmunoprecipitation (RIPA) buffer containing protease inhibitor. The total protein was measured using a BCA® Protein Assay kit (Pierce, USA), and 10 ug protein was electrophoresed on a 10% polyacrylamide gel and transferred to a nitrocellulose membrane. Then, the membrane was blocked with Tris-buffered saline (TBS) containing 5% skim milk and 0.5% Tween® 20 at room temperature for 30 minutes and reacted with antibodies such as anti-NSE, anti-Nestin, Anti-NF-L (Cell Signaling, USA), and β-actin (Sigma, USA) at 4° C. for 16 hours. Subsequently, the membrane was reacted with an anti-mouse or anti-rabbit secondary antibody at room temperature for 1 hour, exposed to ECL™ (Pierce™ Biotechnology, USA), and then imaged using a ChemiDoc™ XRS+Imaging System (BioRad®, USA).

Mesenchymal stem cells [3] = test: Differentiation into neural cells, cellular morphology under a microscope; type: cell-based, human; conditions: for maintenance of the morphology of neural cells: after induction of differentiation
Protocol: Mesenchymal stem cells obtained from adipose tissue used in this Example were StemPro® Adipose-derived Stem Cells (Product No. R7788-110) purchased from Invitrogen. Frozen ampoules were thawed, and cells were washed with DMEM, centrifuged at 800 RPM for 5 minutes, and cultured in DMEM containing low glucose (1000 mg/L) and supplemented with 10% fetal bovine serum (FBS).
as §1

Mesenchymal stem cells [4] = test: RT-PCR of neuron-related genes (MAP2, DCX, Tau, NeuroD1, NSE, Nestin, NF-L); type: cell-based, human; conditions: 5 days after differentiation, compared to the control
Protocol: as §1
The total RNA was recovered and isolated using TRIzol® solution (Invitrogen, USA), and then 1 ug RNA was used to synthesize cDNA using an RT-PCR kit (Clontech, USA). The genes to be analyzed were MAP2, DCX, Tau, NeuroD1, NSE, Nestin and NF-L, and the primers used for the analysis are shown in the following Table 1.

Mesenchymal stem cells [5] = test: Cell viability measured by MTT; type: cell-based, human
Protocol: The cell viability was measured by MTT (3-(4,5-dimethylthiazol-2-yl)-2,5-diphenyltetrazolium bromide). Specifically, MTT solution (0.0333 g/ml DMEM) was added to the neural cells cultured in Example 3 for reaction at 37° C. for 90 minutes and then removed. Then, dimethyl sulfoxide (DMSO) was added and left to stand for 10 minutes, and the resulting solution was used to measure the absorbance at 570 nm using a spectrum analyzer. Mesenchymal stem cells were seeded in low glucose-Dulbecco's Modified Eagle's Medium (LG-DMEM) containing 10% fetal bovine serum (FBS) at a density of 5×10^3 cell/cm2. 24 hours after seeding, the medium was replaced with fresh DMEM/F-12 (1:1 mixed medium) supplemented with 1 ug hydrocortisone, […], 1% bovine serum albumin, and 0, 1, 2, 3, 4, 5 or 8 mM lipoic acid to induce differentiation into neural cells. Moreover, 1 ug forskolin or […] (NGF) might be further added to enhance differentiation into neural cells. […]

Structure (SMILES)	expression of neuron-associated proteins (immunofluorescence) (Mesenchymal stem cells [1])	concentration known to cause cell apoptosis (human cells)	expression of neuron-associated proteins (Western blot) (Mesenchymal stem cells [2]; 4 mM lipoic acid)	expression of neuron-associated proteins (Western blot) (Mesenchymal stem cells [2]; 8 mM lipoic acid)	maintenance of the morphology of neural cells (Mesenchymal stem cells [3])	morphological changes of neural cells (Mesenchymal stem cells [3]; lipoic acid at 1 mM, 5 days, with hydrocortisone, insulin, 1% bovine serum albumin)	morphological changes of neural cells (dendrite formation) (Mesenchymal stem cells [3]; lipoic acid at more than 2 mM, 5 days, with 1 uM hydrocortisone, […], 1% bovine serum albumin)	expression of neuron-related genes (mRNAs) (Mesenchymal stem cells [4]; 4 mM lipoic acid)	expression of neuron-related genes (mRNAs) (Mesenchymal stem cells [4]; 8 mM lipoic acid)	cell viability (Mesenchymal stem cells [5]; human, 4 mM)	cell viability (Mesenchymal stem cells [5]; human, 8 mM)	cell viability (Mesenchymal stem cells [5]; 5 days, 200 ug butylated hydroxyanisole (control))
O=C(O)CCCC[C@@H]1CCSS1 (racemic) [lipoic acid]	increased	≥ 2000 µM	further increased	increased	well maintained up to 5 days	no change	dendrites were well formed	further increased	increased	61.4%	51.4%	
COc1ccc(O)c(C(C)(C)C)c1 [butylated hydroxyanisole]					destroyed after 24 hours							too low
